The values that follow come from article PMC6403188, “Species-Specific Structural Requirements of Alpha-Branched Trehalose Diester Mincle Agonists” (Frontiers in Immunology, 2019).

This assay concerns BALB/c mice. As to the kind of experiment: Splenocyte restimulation with M72 and intracellular cytokine staining of CD4/CD8 T cells after vaccination. Type of assay: in vivo, mouse. The conditions noted are these: 0.125 μg antigen plus 2, 10, or 50 nmol liposomal adjuvant, i.m. two times, spleens 5 days post-secondary. The method, then: Animal studies were carried out in an OLAW and AAALAC accredited vivarium in accordance with University of Montana's IACUC guidelines for the care and use of laboratory animals. Groups of 10–14 BALB/c mice were vaccinated intramuscularly with 0.125 μg M72 antigen and indicated concentrations of various CLR adjuvant candidates (liposomal formulations) in 50 μl total volume per injection. After 14 days, blood and serum samples were collected and a secondary vaccination was administered. At day 19 (5 days post-secondary vaccination), 3–6 mice per group were euthanized and spleens were harvested the assessment of cell-mediated immunity. At day 28 (14 days post booster vaccination) the remaining 7 mice in each group were euthanized and blood was collected for the measurement of M72 specific humoral immunity.
Spleens were harvested from vaccinated mice 5 days after secondary injections and splenocytes were harvested by disruption of the spleens through a 100 μm filter. Red blood cells were lysed by incubation with red blood cell lysis buffer (Sigma) for 5 min followed by washing in 1x PBS. Cells were plated in a 96 well plate at 5 × 10^6 cells/well in 200 μL complete RPMI1640 media. Cells were incubated with 1 μg/mL M72 antigen for […] at 37°C. After 7 h, GolgiPlug (Brefeldin A, BD Biosciences) was added to each well and incubated at 37°C for a further 12 h. Following incubation, cells were stained with the cell surface antibodies against CD3e PerCP-Cy5.5 (Tonbo Biosciences, 145-2C11), CD4a APC-Cy7 (Tonbo Biosciences, RM4-5) and CD8a PE-Cy7 (Tonbo Biosciences, 53–6.7) and viability stain (Ghost 510, Tonbo Biosciences). Cells were treated with cytofix/cytoperm (BD) and stained with anti-IFNγ PE-CF594 (BD, XMG1.2), anti-IL2 FITC (Biolegend, JES6-5H4), anti-IL-5 PE (BD, TRFK5), anti-IL17A BV421 (Biolegend, TC11-18H10.1), and anti-TNFα APC (Invitrogen, MP6-XT22). Data was collected using an LSRII flow cytometer (BD) and analyzed using FlowJo 10.0 software (TreeStar). Splenocytes were gated on live, single cells, then CD3+ to identify all T cells, then gated as CD4+CD8- to identify CD4 T cells or CD4-CD8+ to identify CD8 T cells. Gates for intracellular cytokine positive CD4 or CD8 T cells are set based on re-stimulation of naïve splenocytes. Gating strategies for the detection of antigen specific CD4+ and CD8+ T cells are outlined in Supplemental Figure 3.
Figure 7 Induction of IL-17 producing CD4+ and CD8+ T cells from an αTDE adjuvanted M72 vaccine. BALB/c mice, 10 per group, were immunized two times i.m. with 0.125 μg antigen plus 2, 10, or 50 nmol of the indicated adjuvant. Spleens were harvested from a subset of 3 mice per group at 5 days post-secondary vaccination. Splenocytes were restimulated with 1 μg/mL whole antigen and transport inhibitors followed by surface staining for CD3, CD4, and CD8 and then intracellular cytokine staining. Data represent percentage of live, CD3^+/CD4^+, left, or CD3^+/CD8^+, right, cells that are also positive for IL-17A upon stimulation.
Figure 8 B16 liposomes biases a Th17/Th2 adaptive immune response. BALB/c mice, 14 per group, were immunized twice, 14 days apart, i.m with 0.1, 1, or 10 μg of M72 antigen plus either blank DDA:DSPC liposome or B16 loaded (10 nmol final dose) liposome. (A,B) M72-specific serum antibody titers at 14 days post-secondary vaccination. (C–F) Spleens were harvested from mice at 5 days post-secondary vaccination and restimulated with 1 μg/mL whole antigen and transport inhibitors followed by surface staining for CD3, CD4, and CD8 and then intracellular cytokine staining. (C) Percent of live, CD3^+/CD4^+/IL5+ cells, (D) Percent of live, CD3^+/CD8^+/IFNγ+ cells, (E) Percent of live, CD3^+/CD4^+/IL17+ cells, and (F) Percent of live, CD3^+/CD8^+/IL17+ cells. ^*p < 0.05, ^**p < 0.01, ^****p < 0.001.
Supplemental Figure 10. Production of IFNɣ, IL-2, IL-5 or TNFα by CD4 or CD8 T cells in response to various CLR compounds. […]

Molecules are shown by their SMILES.

Consider `CCCCCCCCCCCCCCCCCCCCCC(=O)OC[C@H]1O[C@H](O[C@H]2O[C@H](COC(=O)CCCCCCCCCCCCCCCCCCCCC)[C@@H](O)[C@H](O)[C@H]2O)[C@H](O)[C@@H](O)[C@@H]1O` [TDB, trehalose dibehenate, reference compound], for which the “IL-17+ CD4+ and CD8+ T cells (Th17 response) after M72 re-stimulation” value is recorded as “able to boost Th17”.
